The COVID Moonshot data (paper PMC7615835)
“And” between values parts separate entries of the source, which are not always exact repeats. Equal entries are not always repeated.

Each molecule was assayed against SARS-CoV-2 Main Protease (SARS-CoV-2) (UniProt P0DTD1).

SMILES	IC50
CN(C)c1ccc(N(Cc2ccn[nH]2)C(=O)Cn2nnc3ccccc32)cc1	15.9 µM
C=CC(=O)N(c1ccc(C(C)(C)C)cc1)C(C(=O)Nc1ccc2c(c1)OCO2)c1cccnc1 (stereo not drawn)	36.1 µM
Cc1ccncc1NC(=O)Cc1cc(Cl)cc(-c2ccc(C)c(F)c2F)c1	31.9 µM
O=C(CCl)N1CCCc2cc(NCc3ccc(F)cc3Cl)ccc21	19.3 µM
CN(C)CC1(C(=O)Nc2cncc3ccccc23)CCOc2ccc(Cl)cc21 (stereo not drawn)	11.5 µM
CNC(=O)CN1Cc2ccc(Cl)cc2C2(CCN(c3cncc4cccc(Cl)c34)C2=O)C1 (stereo not drawn)	3.28 µM
CC(C)(C)c1ccc(N(C(=O)c2coc(CS(C)(=O)=O)n2)C(C(=O)NCCc2cccc(F)c2)c2cccnc2)cc1 (stereo not drawn)	39.2 µM
O=C(Cc1cc(Cl)cc(NCc2cc(F)c(F)c(F)c2)c1)Nc1cncc2ccccc12	3.4 µM
Cc1cc2c(N3CCc4[nH]c5ccccc5c4C3)nccn2n1	> 99.5 µM
COc1ccc(-c2ccsc2S(=O)(=O)N2CCN(C(=O)CCl)CC2)cc1	1.05 µM
COc1ccc2c(c1)c(N)nn2C(=O)Cc1cccc(Cl)c1	> 99.5 µM
Cn1nnnc1C1=CCN(C(=O)CC2(C(=O)Nc3cncc4ccccc34)CCOc3ccc(Cl)cc32)CC1 (stereo not drawn)	9.18 µM
Cc1ccccc1CC(=O)Nc1cncc2ccccc12	29.5 µM
CN(Cc1cccc2ccccc12)c1cc(Cl)cc(CC(=O)Nc2cncc3ccccc23)c1	8.79 µM
COc1ccccc1OCCNC(=O)c1cc(=O)[nH]c2cccc(C)c12	10.6 µM
O=C(Cc1cc(Cl)cc(NC[C@H](O)c2ccc(O)cc2)c1)Nc1cncc2ccccc12 (stereo in doubt)	1.64 µM
Cc1cnnn1-c1ccc(N(C(=O)c2cocn2)C(C(=O)NCCc2cccc(F)c2)c2cccnc2)cc1 (stereo not drawn)	28.4 µM
CC(=O)N(c1ccc(N)cc1)c1cc(Cl)cc(CC(=O)Nc2cncc3ccccc23)c1	2.32 µM
CC(=O)c1ccc(N(C(=O)c2ccco2)C(C(=O)NCCc2cccc(F)c2)c2cccnc2)cc1 (stereo not drawn)	56.3 µM
CNC(=O)CN1Cc2ccc(Cl)cc2[C@@]2(CCN(c3cncc4c3CCCC4)C2=O)C1 (stereo in doubt)	0.235 µM
C=CC(=O)N(c1ccc(C(C)(C)C)cc1)C(C(=O)NCCc1cccc(F)c1)c1cncc(Cl)c1 (stereo not drawn)	11.5 µM
COc1ccc2n[nH]c(NC(=O)Cc3cccc(Cl)c3)c2c1	> 99.5 µM
N#Cc1cc(Cl)ccc1Nc1cc(Cl)cc(CC(=O)Nc2cncc3ccccc23)c1	2.23 µM
O=C(CN1CC(C(=O)Nc2cncc3ccccc23)c2cc(Cl)ccc2C1=O)NCC1CC1 (stereo not drawn)	0.0726 µM and 0.122 µM
COC1(CS(=O)(=O)N2Cc3ccc(Cl)cc3C3(CCN(c4cncc5ccc(OCCN(C)C)cc45)C3=O)C2)CC1 (stereo not drawn)	0.181 µM

SMILES	IC50
O=C(Cc1cccc(Cl)c1)NC1C(=O)NCc2ccccc21 (stereo not drawn)	> 99.5 µM
Cc1nc2cc(NC(=O)Cn3cnc4c(cnn4C)c3=O)ccc2o1	> 99.5 µM
COc1cc(Cl)cc2c1OCC[C@H]2C(=O)Nc1cncc2ccccc12 (stereo in doubt)	> 99.5 µM
c1ccc(-c2cc(Sc3nnc(-c4cccs4)o3)n3ncnc3n2)cc1	0.221 µM
O=C(Cc1cc(Cl)cc(NCc2c(Cl)cccc2Cl)c1)Nc1cncc2ccccc12	2.71 µM
O=C(c1cc(=O)[nH]c2ccccc12)N1CCN(c2ccccc2)CC1	27.5 µM
C[C@@H](C(=O)Nc1cncnc1)c1ccccc1 (stereo in doubt)	> 99.5 µM
COC(=O)[C@@H]1C[C@H](NC(=O)C(c2cccnc2)N(C(=O)c2cocn2)c2ccc(C(C)(C)C)cc2)CN1C(=O)OC(C)(C)C (stereo in doubt)	2.66 µM
CC1(CS(=O)(=O)N2Cc3ccc(Cl)cc3C(C(=O)Nc3cncc4ccccc34)C2)CC1 (stereo not drawn)	0.098 µM
O=C(Cc1cccc(Cl)c1)Nc1cncc2nc[nH]c12	13.3 µM
O=C(Cc1cccc(Cl)c1)Nc1cncc2c(Cl)cccc12	> 99.5 µM
CC(C)(C)OC(=O)N(c1cc(Cl)cc(CC(=O)Nc2cncc3ccccc23)c1)C1CNC1	2.03 µM
CC1NCCn2c(-c3nc(-c4cnc5cnccn45)no3)ccc21 (stereo not drawn)	> 99.5 µM
CC(C)(C)c1ccc(N(C(=O)c2cscn2)C(C(=O)NCCc2cccc(F)c2)c2cccnc2)cc1 (stereo not drawn)	0.891 µM
O=C(Cc1cc(Cl)cc(Nc2cccc(C(F)(F)F)c2F)c1)Nc1cncc2ccccc12	1.84 µM
CCc1ccc2c(c1)C(=O)C(=O)N2CC(=O)O	> 99.5 µM
Cc1c(Br)cnc(Nc2cc(Cl)cc(CC(=O)Nc3cncc4ccccc34)c2)c1[N+](=O)[O-]	2.17 µM
O=C(NCCc1cccc(F)c1)C(c1cccnc1)N(C(=O)c1cnc[nH]1)c1cnc(C2CCC2)nc1 (stereo not drawn)	> 99 µM
O=C(Cc1cc(Cl)cc(NC[C@@H](c2cccnc2)N2CCOCC2)c1)Nc1cncc2ccccc12 (stereo in doubt)	2.58 µM
CCc1nc(-c2nnc[nH]2)sc1C(=O)N(c1ccc(C(C)(C)C)cc1)C(C(=O)NCCc1cccc(F)c1)c1cccnc1 (stereo not drawn)	> 99.5 µM
Cn1ncc2c(NC(=O)Cc3cccc(Cl)c3)cncc21	34 µM
O=S(=O)(Nc1cc2c(cc1OCc1ccccc1)OCO2)c1ccccc1	> 99.5 µM
Cn1c(=O)[nH]c2cncc(NC(=O)C3CCOc4ccc(Cl)cc43)c21 (stereo not drawn)	20.7 µM
Cc1ccncc1NC(=O)Cc1ccccc1N	> 99.5 µM
CC(C)(C)NC(=O)CN1CC(C(=O)Nc2cncc3cc(F)ccc23)c2cc(Cl)ccc2C1=O (stereo not drawn)	1.01 µM

SMILES	IC50
O=C(CCl)N1CCCN(S(=O)(=O)c2cccs2)CC1	7.24 µM
Cn1ccn2c(CNC(=O)c3ccc4ncsc4c3)nnc2c1=O	> 99.5 µM
NS(=O)(=O)c1n[nH]cc1C(=O)NC[C@@]1(C(=O)Nc2cncc3ccccc23)CCOc2ccc(Cl)cc21 (stereo in doubt)	1.99 µM
C[C@H](C(=O)Nc1cncnc1)c1ccccc1 (stereo in doubt)	> 99.5 µM
CNC(=O)C1(N2CC3(CCN(c4cncc5cc(S(C)(=O)=O)ccc45)C3=O)c3cc(Cl)ccc3C2=O)CC1 (stereo not drawn)	0.265 µM
Nc1cccc(C2CN(C(=O)CCl)Cc3ccccc32)c1 (stereo not drawn)	9.23 µM
N#CC1(CS(=O)(=O)N2Cc3ccc(Cl)cc3[C@H](C(=O)Nc3cncc4ccccc34)C2)CNC1 (stereo in doubt)	0.0562 µM and 0.0849 µM
C[C@]1(C(=O)Nc2cncc3ccccc23)CCNc2cc(Cl)c(Cl)cc21 (stereo in doubt)	97.7 µM
Cc1ccncc1NC(=O)CCc1cccc(F)c1	58.5 µM
COc1ccc(CC(=O)Nc2cncc3ccccc23)cc1	72.5 µM
O=C(NCCc1cccc(F)c1)C(c1cccnc1)N(C(=O)c1cnc[nH]1)c1ccc2c(c1)CCCS2(=O)=O (stereo not drawn)	> 99 µM
O=C1O[C@@]2(CCOc3ccc(Cl)cc32)C(=O)N1c1cncc2ccccc12 (stereo in doubt)	> 99.5 µM
O=C(Nc1cncc2ccccc12)C1=CCCc2ccc(Cl)cc21	0.233 µM
CCN(C)S(=O)(=O)N1Cc2ccc(Cl)cc2C2(CCN(c3cncc4ccccc34)C2=O)C1 (stereo not drawn)	0.563 µM
COc1ccc2cncc(NC(=O)[C@@H]3CCNc4cc(Cl)c(Cl)cc43)c2c1 (stereo in doubt)	27.2 µM
C=CC(=O)N(c1ccc(C(C)(C)C)cc1)C(C(=O)NCc1ccccc1)c1cccnc1 (stereo not drawn)	33.3 µM
O=[N+]([O-])c1cnc(Sc2nnc(-c3ccc(Cl)cc3)o2)s1	0.881 µM
CNCC1CCCN(C(=O)[C@@H](c2ccccc2)N2Cc3ccccc3C2=O)C1 (stereo in doubt)	> 99.5 µM
O=C(Nc1cncc2ccccc12)[C@@H]1COc2ccc(Cl)cc21 (stereo in doubt)	0.529 µM and 0.67 µM and 0.483 µM
O=C(Nc1cncc2ccccc12)C1COCc2ccc(Cl)cc21 (stereo not drawn)	8.08 µM
CC(Cn1ccnc1C#N)c1cccc(Cl)c1 (stereo not drawn)	> 99.5 µM
O=C(Nc1[nH]nc2cccc(F)c12)C1CCOc2ccc(Cl)cc21 (stereo not drawn)	> 99.5 µM
COc1cc(Br)ccc1Nc1cc(Cl)cc(CC(=O)Nc2cncc3ccccc23)c1	1.39 µM
CC(=O)Nc1ccc2c(NC(=O)Cc3cccc(Cl)c3)cncc2c1	0.392 µM
Cc1ccc(Nc2cc(Cl)cc(CC(=O)Nc3cncc4ccccc34)c2)cc1Br	2.07 µM

SMILES	IC50
O=C(Nc1ccccn1)[C@H]1CN(C(=O)CCl)CCN1S(=O)(=O)c1ccsc1 (stereo in doubt)	4.77 µM
O=C(Cc1cc(Cl)cc(Nc2ccc3scnc3c2)c1)Nc1cncc2ccccc12	2.22 µM
Cc1ccncc1NC(=O)Cc1cc(Cl)cc(OCc2n[nH]c3ccccc23)c1	> 99.5 µM
C=CC(=O)N1CCN(S(=O)(=O)c2ccccc2)CC1	> 99.5 µM
O=C(Cn1nnc2ccccc21)N(Cc1ccccc1)c1ccc(N2CCOCC2)cc1	19.8 µM
COC1CC2(C1)CC(N(C(=O)c1cocn1)C(C(=O)NCCc1cccc(F)c1)c1cccnc1)C2 (stereo not drawn)	> 99.5 µM
NS(=O)(=O)CCc1ccccc1CN1CCN(C(=O)CCl)CC1	2.72 µM
O=C(Nc1cccc(F)c1)[C@@H](c1ccccc1)N1Cc2ccccc2C1=O (stereo in doubt)	> 99.5 µM
O=C(Cc1cccc(Cl)c1)Nc1[nH]nc2cccc(F)c12	> 99.5 µM
O=C(Cc1cc(Cl)cc(Nc2cc(Br)ccc2F)c1)Nc1cncc2ccccc12	1.9 µM
COc1ccncc1NC(=O)Cc1cccc(Cl)c1	21.6 µM
Cc1nc2cc(C(=O)NNc3nc4ccncc4s3)ccc2o1	> 99.5 µM
N#CCN1Cc2ccc(Cl)cc2C(C(=O)Nc2cncc3ccccc23)C1 (stereo not drawn)	0.335 µM
COCc1ccccc1CNS(=O)(=O)c1c(C)sc(C)c1C	> 99.5 µM
O=C(NCc1nnc2c(=O)[nH]ccn12)c1ccnc2ccnn12	> 99.5 µM
O=C(NCCc1cccc(F)c1)C(c1cccnc1)N(C(=O)c1ccco1)C1CCCC(c2ccc(F)c(F)c2)C1 (stereo not drawn)	> 99.5 µM
COC(=O)C(C)NC(=O)C(c1cccnc1)N(C(=O)c1cocn1)c1ccc(C(C)(C)C)cc1 (stereo not drawn)	7.18 µM
N#CC1(CS(=O)(=O)N2Cc3ccc(Cl)cc3C(C(=O)Nc3cncc4cccc(Cl)c34)C2)CC1 (stereo not drawn)	0.259 µM
C[C@H](C(=O)O)C(=O)SCCNC(=O)CCNC(=O)[C@H](O)C(C)(C)COP(=O)(O)OP(=O)(O)OC[C@H]1O[C@@H](n2cnc3c(N)ncnc32)[C@H](O)[C@@H]1OP(=O)(O)O (stereo in doubt)	> 99 µM
N#Cc1ccc(Nc2cc(Cl)cc(CC(=O)Nc3cncc4ccccc34)c2)c(I)c1	1.62 µM
Cc1cccc2ncc(NC(=O)Cc3cccc(Cl)c3)n12	5.54 µM
C[C@]1(C(=O)Nc2cncc3c2CCCC3)CNS(=O)(=O)c2ccc(Cl)cc21 (stereo in doubt)	0.214 µM
O=C(Cc1cc(Cl)cc(N2CCN(C(=O)C3CC3)CC2)c1)Nc1cncc2ccccc12	2.01 µM
